The source of these data is patent US6833377B2, “Composition and method for potentiating drugs” (priority 2001, dated 2004).

The subject of this test is pentylenetetrazole seizures. To be noted: diazepam alone, pentylenetetrazole 70 mg/kg. The protocol:
For these studies, solutions of the composition of the invention were used, which. were prepared using distilled water immediately before administration. The solutions were administered either orally (IG), by a rigid metal probe into the cardiac section of the stomach at a total amount of 0.8 ml, or intramuscularly (IM) at an amount of 0.2 ml, 30 min before testing.
Anticonvulsive effects of drugs and their compositions was studied on the model of pentetrazole seizures [Parsons C. G . Quack G., Bresink I., Baran L., Przegalinski F., Kostowski. W., Krzascik P., Hartmann. S., Danysz W. Neuropharmacology (1995) 34(10):1239-1258).
To estimate the potentiation of diazepam effect, its minimal effective dose in the composition preventing clonico-tonic and clonic seizures in 80% of rats was determined.

Values joined by “and” are separate entries in the source; they are usually repeats but may differ in a detail not shown here. Equal entries are not always repeated. Where two headings read alike, the source gives them in different places.

Consider `CN1C(=O)CN=C(c2ccccc2)c2cc(Cl)ccc21` [Diazepam], for which the “Minimal dose of diazepam preventing clonico-tonic pentylenetetrazol seizures in 80% of rats” value runs as follows: (IG) 2.5 mg/kg and 2.5 ± 0.3 mg/kg; (IM) 6.7 mg/kg and 6.7 ± 0.7 mg/kg.
